This experiment has as its system BDF1 mice, B16 melanoma ip, median survival T/C. Kind of experiment: NCI In Vivo Anticancer Drug Screen. Data for tumor model B16 Melanoma (intraperitoneal) in B6D2F1 (BDF1) mice. The conditions noted are these: endpoint: median survival time, higher = longer survival. In a few lines:
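Values are ratios of treated (T) to vehicle-control (C) measurements of survival or tumor size in tumor-bearing mice.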

[1] abbreviates: dose: 50.0 mg/kg/injection, schedule: Q04DX003 (ip), vehicle: saline with Tween-80.
Where [2] appears, read: dose: 100.0 mg/kg/injection, schedule: Q04DX003 (ip), vehicle: saline with Tween-80.
Where [3] appears, read: dose: 400.0 mg/kg/injection, schedule: Q04DX003 (ip), vehicle: saline with Tween-80.
Setting [4] is: dose: 100.0 mg/kg/injection, schedule: Q01DX009 (ip), vehicle: Klucel (hydroxypropylcellulose) (HPC).
Setting [5] is: dose: 200.0 mg/kg/injection, schedule: Q01DX009 (ip), vehicle: Klucel (hydroxypropylcellulose) (HPC).
Setting [6] is: dose: 50.0 mg/kg/injection, schedule: Q01DX009 (ip), vehicle: saline with Tween-80.
Where [7] appears, read: dose: 100.0 mg/kg/injection, schedule: Q01DX009 (ip), vehicle: saline with Tween-80.
The mark [8] stands for this setting: dose: 25.0 mg/kg/injection, schedule: Q01DX009 (ip), vehicle: Klucel (hydroxypropylcellulose) (HPC).
Setting [9] is: dose: 50.0 mg/kg/injection, schedule: Q01DX009 (ip), vehicle: Klucel (hydroxypropylcellulose) (HPC).
Where [10] appears, read: dose: 50.0 mg/kg/injection, schedule: Q01DX009 (ip), vehicle: other.
Setting [11] is: dose: 6.25 mg/kg/injection, schedule: Q01DX009 (ip), vehicle: saline.
Setting [12] is: dose: 12.5 mg/kg/injection, schedule: Q01DX009 (ip), vehicle: Klucel (hydroxypropylcellulose) (HPC).
[13] abbreviates: dose: 25.0 mg/kg/injection, schedule: Q01DX009 (ip), vehicle: saline with Tween-80.
The mark [14] stands for this setting: dose: 100.0 mg/kg/injection, schedule: Q01DX009 (ip), vehicle: saline.
Where [15] appears, read: dose: 200.0 mg/kg/injection, schedule: Q01DX009 (ip), vehicle: saline.
[16] abbreviates: dose: 400.0 mg/kg/injection, schedule: Q01DX009 (ip), vehicle: saline.

Molecules are shown by their SMILES. Values joined by “and” are separate entries in the source; they are usually repeats but may differ in a detail not shown here. Equal entries are not always repeated. Inconclusive results and toxic doses are left out.

Consider `C=C(OC)C(Nc1cc(OC)c(OC)cc1C(=O)OC1CC(O[C@@H]2C(=O)C(NC(=O)OC)=C3/C(=C\CSSSC)[C@]2(O)C#C/C=C\C#C[C@@H]3OC2OC(C)C(NOC3CC(O)C(SC)C(C)O3)C(O)C2OC2CC(OC)C(NCCC)CO2)OC(C)C1O)OC` (some centres not stated), for which the T/C is 178 % of control (dose: 0.1 micrograms/kg/injection, schedule: Q01DX009 (ip), vehicle: methylcellulose (MC)); 172 % of control (dose: 0.2 micrograms/kg/injection, schedule: Q01DX009 (ip), vehicle: methylcellulose (MC)); 175 % of control (dose: 0.4 micrograms/kg/injection, schedule: Q01DX009 (ip), vehicle: methylcellulose (MC)); 160 % of control (dose: 0.4 micrograms/kg/injection, schedule: Q04DX003 (ip), vehicle: methylcellulose (MC)); 182 % of control (dose: 0.8 micrograms/kg/injection, schedule: Q01DX009 (ip), vehicle: methylcellulose (MC)); 182 % of control (dose: 1.6 micrograms/kg/injection, schedule: Q01DX009 (ip), vehicle: methylcellulose (MC)). Also, the T/C (dose: 1.6 micrograms/kg/injection, schedule: Q04DX003 (ip), vehicle: methylcellulose (MC)) was 168 % of control; the T/C (dose: 3.2 micrograms/kg/injection, schedule: Q04DX003 (ip), vehicle: methylcellulose (MC)) is 153 % of control; the T/C (dose: 6.4 micrograms/kg/injection, schedule: Q04DX003 (ip), vehicle: methylcellulose (MC)) is 106 % of control.
Take `CCOC(=O)CCCN(c1sc(C)c(C)c1C(=O)OCC)S(=O)(=O)c1ccc(C)cc1`: the T/C under setting [1] was 111 % of control; the T/C under setting [2] is 105 % of control; the T/C (dose: 200.0 mg/kg/injection, schedule: Q04DX003 (ip), vehicle: saline with Tween-80) was 111 % of control; the T/C under setting [3] is 100 % of control.
On to `Brc1cc(Br)c(-c2c(Br)cc(Br)cc2Br)c(Br)c1`, for which the T/C is 102 % of control under setting [4] and 88 % of control under setting [5].
On to `O=C1CN(CCN2CC(=O)NC(=O)C2)CC(=O)N1`, for which the T/C is 115 % of control (dose: 15.0 mg/kg/injection, schedule: Q01DX009 (oral), vehicle: saline) and 122 % of control (dose: 30.0 mg/kg/injection, schedule: Q01DX009 (oral), vehicle: saline).
Consider `CC(C)C(NC=O)C(=O)O` (configuration not stated), for which the T/C was 101 % of control under setting [6]; 97 % of control under setting [7]; 92 % of control (dose: 200.0 mg/kg/injection, schedule: Q01DX009 (ip), vehicle: saline with Tween-80).
Take `O=c1[nH]cnc2nc(/N=N/SCCO)[nH]c12`: the T/C runs as follows: under setting [8], 100 % of control; under setting [9], 103 % of control; under setting [4], 101 % of control; under setting [5], 98 % of control.
`CCCC1(CCC)c2ccccc2C(CCl)(OCC)c2ccccc21`: the T/C (dose: 12.5 mg/kg/injection, schedule: Q01DX009 (ip), vehicle: other) is 92 % of control; the T/C (dose: 25.0 mg/kg/injection, schedule: Q01DX009 (ip), vehicle: other) was 102 % of control; the T/C under setting [10] was 100 % of control; the T/C (dose: 75.0 mg/kg/injection, schedule: Q01DX009 (ip), vehicle: other) is 86 % of control; the T/C (dose: 300.0 mg/kg/injection, schedule: Q01DX009 (ip), vehicle: other) was 86 % of control.
`NC(CC(=O)CCl)C(=O)O` (configuration not stated): the T/C is 109 % of control (dose: 3.13 mg/kg/injection, schedule: Q01DX009 (ip), vehicle: saline) and 118 % of control under setting [11].
As for `CCOc1ccc(Br)cc1/C=N\N=C\c1cc(Br)ccc1OCC`, the T/C was 100 % of control under setting [12]; 88 % of control and 105 % of control under setting [8]; 89 % of control and 94 % of control under setting [9].
With `c1ccc(CN2CCNCC2)cc1`, the T/C by setting is: under setting [11], 108 % of control; (dose: 12.5 mg/kg/injection, schedule: Q01DX009 (ip), vehicle: saline) 108 % of control; (dose: 25.0 mg/kg/injection, schedule: Q01DX009 (ip), vehicle: saline) 106 % of control.
`OCCOc1c(Cl)c(Cl)c(Cl)c(Cl)c1Cl`: the T/C by setting is: under setting [13], 100 % of control; under setting [6], 92 % of control; under setting [7], 97 % of control.
As for `O=[N+]([O-])c1ccc(/C=C2/c3cc(Cl)ccc3-c3c(Cl)cc(Cl)cc32)o1`, the T/C was 93 % of control (dose: 50.0 mg/kg/injection, schedule: Q01DX009 (ip), vehicle: saline); 100 % of control under setting [14]; 90 % of control under setting [15]; 88 % of control under setting [16].
Consider `CC(=O)CC(C)=O.CC(=O)CC(C)=O.O=N[O-].O=N[O-].[Co]`, for which the T/C was 96 % of control (dose: 12.5 mg/kg/injection, schedule: Q01DX009 (ip), vehicle: saline with Tween-80); 103 % of control under setting [13]; 91 % of control under setting [6].
For `CCOc1ccnc(OCC)n1`, the T/C reads like this: under setting [13], 96 % of control; under setting [6], 101 % of control; under setting [7], 99 % of control.
`C=CCNC(=O)c1ccccc1SC(C)=O`: the T/C was 101 % of control (dose: 100.0 mg/kg/injection, schedule: Q01DX009 (ip), vehicle: saline + Tween-80 + alcohol); 116 % of control (dose: 200.0 mg/kg/injection, schedule: Q01DX009 (ip), vehicle: saline + Tween-80 + alcohol); 124 % of control (dose: 400.0 mg/kg/injection, schedule: Q01DX009 (ip), vehicle: saline + Tween-80 + alcohol).
For the compound `O=C(Nc1ccc2c(c1)Cc1cc(Br)ccc1-2)C(F)(F)F`, the T/C is, setting by setting: (dose: 25.0 mg/kg/injection, schedule: Q04DX003 (ip), vehicle: saline with Tween-80) 103 % of control; under setting [1], 109 % of control; under setting [2], 95 % of control and 96 % of control; under setting [3], 86 % of control.
`Cn1cnc([N+](=O)[O-])c1S(=O)(=O)NCN1CCOCC1`: the T/C under setting [12] was 98 % of control, the T/C under setting [8] is 96 % of control, the T/C under setting [9] is 97 % of control and the T/C under setting [4] was 94 % of control.
As to `O=CN(c1ccccc1)c1ccccc1`, the T/C is, setting by setting: under setting [10], 100 % of control; (dose: 100.0 mg/kg/injection, schedule: Q01DX009 (ip), vehicle: other) 100 % of control; (dose: 200.0 mg/kg/injection, schedule: Q01DX009 (ip), vehicle: other) 105 % of control; (dose: 400.0 mg/kg/injection, schedule: Q01DX009 (ip), vehicle: other) 97 % of control.
Consider `COc1ccc2c(c1OC)C(=O)O[C@@H]2[C@H]1c2cc3c(cc2CCN1C)OCO3`, for which the T/C reads like this: (dose: 10.0 mg/kg/injection, schedule: Q01DX009 (ip), vehicle: saline) 112 % of control; (dose: 20.0 mg/kg/injection, schedule: Q01DX009 (ip), vehicle: saline) 108 % of control; (dose: 40.0 mg/kg/injection, schedule: Q01DX009 (ip), vehicle: saline) 98 % of control; (dose: 80.0 mg/kg/injection, schedule: Q01DX009 (ip), vehicle: saline) 109 % of control.
In the case of `C[C@]12CC[C@@H]3c4ccc(OC(=O)Cc5ccc(N(CCCl)CCCl)cc5)cc4CC[C@H]3[C@@H]1CC[C@@H]2OC(=O)Cc1ccc(N(CCCl)CCCl)cc1`, the T/C runs as follows: under setting [12], 95 % of control; under setting [8], 108 % of control; under setting [9], 104 % of control; (dose: 64.0 mg/kg/injection, schedule: Q02DX009 (ip), vehicle: Klucel (hydroxypropylcellulose) (HPC)) 95 % of control; under setting [4], 111 % of control; under setting [5], 118 % of control. Moreover, the T/C reads like this: (dose: 256.0 mg/kg/injection, schedule: Q02DX009 (ip), vehicle: Klucel (hydroxypropylcellulose) (HPC)) 90 % of control; (dose: 400.0 mg/kg/injection, schedule: Q01DX009 (ip), vehicle: Klucel (hydroxypropylcellulose) (HPC)) 123 % of control.
As for `COc1cc(C(N)=O)cc(OC)c1O`, the T/C by setting is: under setting [14], 115 % of control; under setting [15], 110 % of control; under setting [16], 118 % of control.
For `CCC(C)(C[NH-])C[NH-].[Cl][Pt+2][Cl]`, the T/C is 159 % of control (dose: 0.5 mg/kg/injection, schedule: Q01DX009 (ip), vehicle: carboxymethylcellulose (CMC)) and 180 % of control (dose: 1.0 mg/kg/injection, schedule: Q01DX009 (ip), vehicle: carboxymethylcellulose (CMC)).

Source of the values: PubChem BioAssay AID192 (DTP/NCI, 2004).
